Experimental data published in PubChem BioAssay AID248 (DTP/NCI, 2004).
Several values for one entry are separate records, joined by “and”; a condition that tells them apart may be missing. Equal entries are not always repeated. Inconclusive results and toxic doses are left out. No stated cut-off is given here; in the data, active means T/C of 150% or more; inactive means T/C below 125%.

System: L1210 leukemia ip in BDF1 mice, survival T/C
Test: NCI In Vivo Anticancer Drug Screen. Data for tumor model L1210 Leukemia (intraperitoneal) in B6D2F1 (BDF1) mice
Conditions: endpoint: mean survival time, higher = longer survival
Method: The antitumor activity of compounds was measured in mice bearing transplantable tumors. Survival or tumor size were measured and the results are expressed as the measurement made in the treated group (T) divided by the measurement made in the vehicle treated control group (C). The tumor model used in this assay is L1210 Leukemia (intraperitoneal) in B6D2F1 (BDF1) mice

[1] = dose: 100.0 mg/kg/injection, schedule: Q01DX009 (ip), vehicle: Klucel (hydroxypropylcellulose) (HPC)
[2] = dose: 200.0 mg/kg/injection, schedule: Q01DX009 (ip), vehicle: Klucel (hydroxypropylcellulose) (HPC)
[3] = dose: 400.0 mg/kg/injection, schedule: Q01DX009 (ip), vehicle: Klucel (hydroxypropylcellulose) (HPC)
[4] = dose: 100.0 mg/kg/injection, schedule: Q04DX002 (ip), vehicle: Klucel (hydroxypropylcellulose) (HPC)
[5] = dose: 200.0 mg/kg/injection, schedule: Q04DX002 (ip), vehicle: Klucel (hydroxypropylcellulose) (HPC)
[6] = dose: 400.0 mg/kg/injection, schedule: Q04DX002 (ip), vehicle: Klucel (hydroxypropylcellulose) (HPC)
[7] = dose: 100.0 mg/kg/injection, schedule: Q01DX001 (ip), vehicle: carboxymethylcellulose (CMC)
[8] = dose: 200.0 mg/kg/injection, schedule: Q01DX001 (ip), vehicle: carboxymethylcellulose (CMC)
[9] = dose: 400.0 mg/kg/injection, schedule: Q01DX001 (ip), vehicle: carboxymethylcellulose (CMC)
[10] = dose: 100.0 mg/kg/injection, schedule: Q01DX001 (ip), vehicle: saline
[11] = dose: 100.0 mg/kg/injection, schedule: Q01DX009 (ip), vehicle: saline with Tween-80
[12] = dose: 100.0 mg/kg/injection, schedule: Q04DX003 (ip), vehicle: saline
[13] = dose: 200.0 mg/kg/injection, schedule: Q01DX001 (ip), vehicle: saline
[14] = dose: 200.0 mg/kg/injection, schedule: Q01DX009 (ip), vehicle: saline with Tween-80
[15] = dose: 200.0 mg/kg/injection, schedule: Q04DX003 (ip), vehicle: saline
[16] = dose: 400.0 mg/kg/injection, schedule: Q01DX001 (ip), vehicle: saline
[17] = dose: 400.0 mg/kg/injection, schedule: Q01DX009 (ip), vehicle: saline with Tween-80
[18] = dose: 400.0 mg/kg/injection, schedule: Q04DX003 (ip), vehicle: saline
[19] = dose: 100.0 mg/kg/injection, schedule: Q04DX003 (ip), vehicle: Klucel (hydroxypropylcellulose) (HPC)
[20] = dose: 200.0 mg/kg/injection, schedule: Q04DX003 (ip), vehicle: Klucel (hydroxypropylcellulose) (HPC)
[21] = dose: 400.0 mg/kg/injection, schedule: Q04DX003 (ip), vehicle: Klucel (hydroxypropylcellulose) (HPC)
[22] = dose: 100.0 mg/kg/injection, schedule: Q01DX001 (ip), vehicle: Klucel (hydroxypropylcellulose) (HPC)
[23] = dose: 200.0 mg/kg/injection, schedule: Q01DX001 (ip), vehicle: Klucel (hydroxypropylcellulose) (HPC)
[24] = dose: 400.0 mg/kg/injection, schedule: Q01DX001 (ip), vehicle: Klucel (hydroxypropylcellulose) (HPC)

Measured: T/C

O=[N+]([O-])c1ccc(/C=N\N=C\c2ccc([N+](=O)[O-])cc2)cc1
inactive: dose: 100.0 mg/kg/injection, schedule: Q01DX001 (ip), vehicle: other 104 % of control | dose: 200.0 mg/kg/injection, schedule: Q01DX001 (ip), vehicle: other 104 % of control | dose: 400.0 mg/kg/injection, schedule: Q01DX001 (ip), vehicle: other 104 % of control

S=C(NCc1cccc2ccccc12)Nc1ccccc1
inactive: [1] 95 % of control | [2] 97 % of control | [3] 104 % of control

O=C(Nc1cccc2ccccc12)Oc1ccc2ccccc2c1
inactive: [4] 96 % of control | [5] 93 % of control | [6] 116 % of control

CC(=O)Nc1ccc(Cc2ccc(NC(C)=O)cc2[N+](=O)[O-])c([N+](=O)[O-])c1
inactive: [7] 105 % of control | [8] 100 % of control | [9] 93 % of control

CCOC(=O)NCc1ccco1
inactive: dose: 5.0 mg/kg/injection, schedule: Q01DX009 (ip), vehicle: saline 89 % of control | dose: 10.0 mg/kg/injection, schedule: Q01DX009 (ip), vehicle: saline 109 % of control | dose: 20.0 mg/kg/injection, schedule: Q01DX009 (ip), vehicle: saline 93 % of control

OCC(O)C(O)C(O)C(O)C(O)CO (configuration not stated)
inactive: [10] 98 % of control | [11] 96 % of control | [12] 94 % of control | [13] 106 % of control | [14] 110 % of control | [15] 97 % of control | [16] 95 % of control | [17] 90 % of control | [18] 106 % of control

Cc1ccc(N=Cc2ccccc2)cc1
inactive: [1] 104 % of control | [19] 95 % of control | [2] 107 % of control | [20] 101 % of control | [3] 104 % of control | [21] 101 % of control

C/C(=N\O)C(C)C
inactive: dose: 100.0 mg/kg/injection, schedule: Q01DX001 (ip), vehicle: saline with Tween-80 93 % of control | [11] 100 % of control | dose: 200.0 mg/kg/injection, schedule: Q01DX001 (ip), vehicle: saline with Tween-80 101 % of control | [14] 98 % of control | dose: 400.0 mg/kg/injection, schedule: Q01DX001 (ip), vehicle: saline with Tween-80 98 % of control | [17] 92 % of control

O=C(Nc1ccc(Br)cc1C(F)(F)F)C(F)(F)F
inactive: dose: 50.0 mg/kg/injection, schedule: Q04DX003 (ip), vehicle: Klucel (hydroxypropylcellulose) (HPC) 102 % of control | [22] 100 % of control | [19] 104 % of control | [23] 94 % of control | [20] 112 % of control | [24] 97 % of control | [21] 105 % of control

CCCCOC(=O)c1ccc(OC(=O)Nc2ccc(C)cc2[N+](=O)[O-])cc1
inactive: dose: 50.0 mg/kg/injection, schedule: Q01DX009 (ip), vehicle: saline + alcohol 97 % of control | dose: 100.0 mg/kg/injection, schedule: Q01DX009 (ip), vehicle: saline + alcohol 123 % of control | dose: 200.0 mg/kg/injection, schedule: Q01DX009 (ip), vehicle: saline + alcohol 103 % of control

COC(=O)COc1ccc(Cl)c2ccccc12
inactive: dose: 50.0 mg/kg/injection, schedule: Q04DX002 (ip), vehicle: Klucel (hydroxypropylcellulose) (HPC) 89 % of control | [4] 96 % of control | [5] 99 % of control and 105 % of control | [6] 92 % of control

CN(C)CCSC(CO)c1ccccc1 (configuration not stated)
inactive: [7] 96 % of control | [8] 89 % of control | [9] 94 % of control

O=C(Nc1ccccc1-c1ccc([N+](=O)[O-])cc1)c1cc(Cl)cc(Cl)c1
inactive: dose: 100.0 mg/kg/injection, schedule: Q04DX003 (ip), vehicle: saline with Tween-80 88 % of control | dose: 200.0 mg/kg/injection, schedule: Q04DX003 (ip), vehicle: saline with Tween-80 88 % of control

COc1cc([N+](=O)[O-])c(O)cc1O
inactive: [12] 101 % of control | [15] 100 % of control | [18] 96 % of control

O=C(O)c1ccccc1N=Cc1ccc[nH]1
inactive: [4] 115 % of control | [5] 100 % of control | [6] 96 % of control

CC(C)CN(OC(=O)c1ccccc1)[N+](=O)[O-]
inactive: dose: 50.0 mg/kg/injection, schedule: Q04DX002 (ip), vehicle: saline 94 % of control | dose: 100.0 mg/kg/injection, schedule: Q04DX002 (ip), vehicle: saline 108 % of control | dose: 200.0 mg/kg/injection, schedule: Q04DX002 (ip), vehicle: saline 102 % of control

N=c1ncn(C2OC(CO[P+](N)(O)O)C(O)C2O)c2nc[nH]c12 (configuration not stated)
inactive: dose: 12.5 mg/kg/injection, schedule: Q01DX005 (ip), vehicle: water 110 % of control | dose: 25.0 mg/kg/injection, schedule: Q01DX005 (ip), vehicle: water 106 % of control

O=S1(=O)CCNNCC1
inactive: dose: 37.5 mg/kg/injection, schedule: Q01DX009 (ip), vehicle: saline 100 % of control | dose: 75.0 mg/kg/injection, schedule: Q01DX009 (ip), vehicle: saline 109 % of control | dose: 150.0 mg/kg/injection, schedule: Q01DX009 (ip), vehicle: saline 105 % of control | dose: 300.0 mg/kg/injection, schedule: Q01DX009 (ip), vehicle: saline 103 % of control

CSc1cc(C)c(O)c(CO)c1
inactive: dose: 100.0 mg/kg/injection, schedule: Q01DX009 (ip), vehicle: other 92 % of control | dose: 200.0 mg/kg/injection, schedule: Q01DX009 (ip), vehicle: other 97 % of control | dose: 400.0 mg/kg/injection, schedule: Q01DX009 (ip), vehicle: other 92 % of control

O=[N+]([O-])c1c(Br)ncn1Cc1ccccc1
inactive: dose: 100.0 mg/kg/injection, schedule: Q04DX003 (ip), vehicle: acetone 99 % of control | dose: 200.0 mg/kg/injection, schedule: Q04DX003 (ip), vehicle: acetone 96 % of control

COC(=O)c1ccccc1N=Nc1ccc(O)c(C(C)C)c1
inactive: dose: 25.0 mg/kg/injection, schedule: Q01DX009 (ip), vehicle: Klucel (hydroxypropylcellulose) (HPC) 98 % of control | dose: 50.0 mg/kg/injection, schedule: Q01DX009 (ip), vehicle: Klucel (hydroxypropylcellulose) (HPC) 98 % of control | [19] 97 % of control | [20] 100 % of control | [21] 98 % of control

CSc1nnc(-c2cccs2)s1
inactive: [19] 98 % of control

CC(C)CC(NC(=O)CNC(=O)OCc1ccccc1)C(=O)OCc1ccccc1 (configuration not stated)
inactive: dose: 100.0 mg/kg/injection, schedule: Q04DX003 (ip), vehicle: other 100 % of control | dose: 200.0 mg/kg/injection, schedule: Q04DX003 (ip), vehicle: other 108 % of control | dose: 400.0 mg/kg/injection, schedule: Q04DX003 (ip), vehicle: other 102 % of control

N#CCCOP(=O)(O)O
inactive: [22] 101 % of control | [23] 98 % of control | [24] 88 % of control

CC1(O)CC(=O)C2C3C=CC(C3)C21 (configuration not stated)
inactive: dose: 75.0 mg/kg/injection, schedule: Q01DX001 (ip), vehicle: other 98 % of control | dose: 150.0 mg/kg/injection, schedule: Q01DX001 (ip), vehicle: other 104 % of control

Cc1cccc(/C=C2/SC(=S)N(c3ccccc3)C2=O)c1
inactive: [10] 100 % of control | [13] 98 % of control | [16] 105 % of control

CCOC(=O)c1[nH]c(C)c(C)c1-c1ccccc1
inactive: [19] 109 % of control | [20] 94 % of control

S=P(c1cccc2ccccc12)(c1cccc2ccccc12)c1cccc2ccccc12
inactive: [10] 97 % of control | [13] 95 % of control | [16] 95 % of control
